Laboratory results taken from patent US9737498B2, “Method for treating an inflammation or lesion caused by a virus” (priority 2001, dated 2017).
Read-outs that look alike come from different tables or passages of the source.

Experiments:
[1] = test system: Herpes simplex virus 1 (HSV-1); test: Growth inhibition of HSV-1 in vitro (Vero cells, cytopathic effect / plaques); format: cell-based; conditions: for Upper pH limit at which HSV-1 is inactivated by the alcohol: alcohol 0.2% by volume, pH adjusted with HCl, tested pH 4.0 to 6.8 at increments of 0.2, incubated with the virus for 2 minutes; for Virus growth (HSV-1): pH 3.5 (HCl)
[2] = test system: "enveloped" viruses (herpesvirus, orthomyxovirus and rhabdovirus (Rabies virus)); conditions: room temperature, aqueous solutions of pure acids; cited from earlier work
rhinoviruses = conditions: foams; cited from earlier work
[3] = test system: naked viruses (e.g., poliovirus type 1); conditions: alcohol alone; cited from earlier work
[4] = test system: VSV (a lipid-coated virus); conditions: cited from earlier work

## CCC(O)CO (stereo not drawn) [1,2-butanediol]
[1]
  Upper pH limit at which HSV-1 is inactivated by the alcohol: 4.2

## CC(O)C(C)O (stereo not drawn) [2,3-butanediol]
[1]
  Upper pH limit at which HSV-1 is inactivated by the alcohol: 4.6

## O=C(O)CC(O)(CC(=O)O)C(=O)O [citric acid]
[2]
  Effectiveness in vitro against enveloped viruses: effective

## CCO [ethanol]
[1]; 1.0% ethanol, 5 minute exposure, diluted 1/16 with Eagles medium
  Virus growth (HSV-1): +
[1]; 1.0% ethanol, 5 minute exposure, diluted 1/64 with Eagles medium
  Virus growth (HSV-1): +
[1]; 1.0% ethanol, 5 minute exposure, diluted ¼ with Eagles medium
  Virus growth (HSV-1): +
[1]; 1.0% ethanol, 5 minute exposure, undiluted
  Virus growth (HSV-1): +
[1]; 1.0% ethanol, 10 minute exposure, diluted 1/16 with Eagles medium
  Virus growth (HSV-1): +
[1]; 1.0% ethanol, 10 minute exposure, diluted 1/64 with Eagles medium
  Virus growth (HSV-1): +
[1]; 1.0% ethanol, 10 minute exposure, diluted ¼ with Eagles medium
  Virus growth (HSV-1): +
[1]; 1.0% ethanol, 10 minute exposure, undiluted
  Virus growth (HSV-1): −
[1]; 2.5% ethanol solution diluted by ¼, pH 3.5, exposure time 10 minutes
  Inhibition of growth of the virus (HSV-1): effectively inhibited growth of the virus
[1]; 2.5% ethanol, 5 minute exposure, diluted 1/16 with Eagles medium
  Virus growth (HSV-1): +
[1]; 2.5% ethanol, 5 minute exposure, diluted 1/64 with Eagles medium
  Virus growth (HSV-1): +
[1]; 2.5% ethanol, 5 minute exposure, diluted ¼ with Eagles medium
  Virus growth (HSV-1): +
[1]; 2.5% ethanol, 5 minute exposure, undiluted
  Virus growth (HSV-1): +
[1]; 2.5% ethanol, 10 minute exposure, diluted 1/16 with Eagles medium
  Virus growth (HSV-1): +
[1]; 2.5% ethanol, 10 minute exposure, diluted 1/64 with Eagles medium
  Virus growth (HSV-1): +
[1]; 2.5% ethanol, 10 minute exposure, diluted ¼ with Eagles medium
  Virus growth (HSV-1): −
[1]; 2.5% ethanol, 10 minute exposure, undiluted
  Virus growth (HSV-1): −
[1]; 5.0% ethanol, 5 minute exposure, diluted 1/16 with Eagles medium
  Virus growth (HSV-1): +
[1]; 5.0% ethanol, 5 minute exposure, diluted 1/64 with Eagles medium
  Virus growth (HSV-1): +
[1]; 5.0% ethanol, 5 minute exposure, diluted ¼ with Eagles medium
  Virus growth (HSV-1): +
[1]; 5.0% ethanol, 5 minute exposure, undiluted
  Virus growth (HSV-1): +
[1]; 5.0% ethanol, 10 minute exposure, diluted 1/16 with Eagles medium
  Virus growth (HSV-1): +
[1]; 5.0% ethanol, 10 minute exposure, diluted 1/64 with Eagles medium
  Virus growth (HSV-1): +
[1]; 5.0% ethanol, 10 minute exposure, diluted ¼ with Eagles medium
  Virus growth (HSV-1): −
[1]; 5.0% ethanol, 10 minute exposure, undiluted
  Virus growth (HSV-1): −
[1]; 10% ethanol, 5 minute exposure, diluted 1/16 with Eagles medium
  Virus growth (HSV-1): +
[1]; 10% ethanol, 5 minute exposure, diluted 1/64 with Eagles medium
  Virus growth (HSV-1): +
[1]; 10% ethanol, 5 minute exposure, diluted ¼ with Eagles medium
  Virus growth (HSV-1): +
[1]; 10% ethanol, 5 minute exposure, undiluted
  Virus growth (HSV-1): +
[1]; 10% ethanol, 10 minute exposure, diluted 1/16 with Eagles medium
  Virus growth (HSV-1): +
[1]; 10% ethanol, 10 minute exposure, diluted 1/64 with Eagles medium
  Virus growth (HSV-1): +
[1]; 10% ethanol, 10 minute exposure, diluted ¼ with Eagles medium
  Virus growth (HSV-1): −
[1]; 10% ethanol, 10 minute exposure, undiluted
  Virus growth (HSV-1): −
[1]; 12.5% ethanol solution, pH 3.5, exposure time of five minutes
  Inhibition of the virus (HSV-1): inhibited the virus
[1]; 12.5% ethanol, 5 minute exposure, diluted 1/16 with Eagles medium
  Virus growth (HSV-1): +
[1]; 12.5% ethanol, 5 minute exposure, diluted 1/64 with Eagles medium
  Virus growth (HSV-1): +
[1]; 12.5% ethanol, 5 minute exposure, diluted ¼ with Eagles medium
  Virus growth (HSV-1): −
[1]; 12.5% ethanol, 5 minute exposure, undiluted
  Virus growth (HSV-1): −
[1]; 12.5% ethanol, 10 minute exposure, diluted 1/16 with Eagles medium
  Virus growth (HSV-1): −
[1]; 12.5% ethanol, 10 minute exposure, diluted 1/64 with Eagles medium
  Virus growth (HSV-1): +
[1]; 12.5% ethanol, 10 minute exposure, diluted ¼ with Eagles medium
  Virus growth (HSV-1): −
[1]; 12.5% ethanol, 10 minute exposure, undiluted
  Virus growth (HSV-1): −
[1]
  Upper pH limit at which HSV-1 is inactivated by the alcohol: 4.4
rhinoviruses
  Effectiveness in killing rhinoviruses: not effective
[3]
  Activity against naked viruses: did not exhibit sufficient activities
[4]; pH of about 4 to 5 at 4° C., aqueous solution of biologically active protein
  Virucidal activity against VSV: fairly inactive

## O=C(O)CO [glycolic acid]
[1]; aqueous acid solution pH 3.8, exposure of 4 minutes, dilution 1/16
  Virus growth at sample dilution (HSV-1): −
[1]; aqueous acid solution pH 3.8, exposure of 4 minutes, dilution 1/64
  Virus growth at sample dilution (HSV-1): −
[1]; aqueous acid solution pH 3.8, exposure of 4 minutes, dilution ¼
  Virus growth at sample dilution (HSV-1): −
[1]; aqueous acid solution pH 3.8, exposure of 4 minutes, undiluted
  Virus growth at sample dilution (HSV-1): −
[1]; aqueous acid solution pH 4.0, exposure of 4 minutes, dilution 1/16
  Virus growth at sample dilution (HSV-1): +
[1]; aqueous acid solution pH 4.0, exposure of 4 minutes, dilution 1/64
  Virus growth at sample dilution (HSV-1): +
[1]; aqueous acid solution pH 4.0, exposure of 4 minutes, dilution ¼
  Virus growth at sample dilution (HSV-1): +
[1]; aqueous acid solution pH 4.0, exposure of 4 minutes, undiluted
  Virus growth at sample dilution (HSV-1): +
[1]; aqueous acid solution pH 4.2, exposure of 4 minutes, dilution 1/16
  Virus growth at sample dilution (HSV-1): +
[1]; aqueous acid solution pH 4.2, exposure of 4 minutes, dilution 1/64
  Virus growth at sample dilution (HSV-1): +
[1]; aqueous acid solution pH 4.2, exposure of 4 minutes, dilution ¼
  Virus growth at sample dilution (HSV-1): +
[1]; aqueous acid solution pH 4.2, exposure of 4 minutes, undiluted
  Virus growth at sample dilution (HSV-1): −
[1]; aqueous acid solution pH 6.0, exposure of 4 minutes, dilution 1/16
  Virus growth at sample dilution (HSV-1): +
[1]; aqueous acid solution pH 6.0, exposure of 4 minutes, dilution 1/64
  Virus growth at sample dilution (HSV-1): +
[1]; aqueous acid solution pH 6.0, exposure of 4 minutes, dilution ¼
  Virus growth at sample dilution (HSV-1): +
[1]; aqueous acid solution pH 6.0, exposure of 4 minutes, undiluted
  Virus growth at sample dilution (HSV-1): +

## O=C(O)CC(O)C(=O)O (stereo not drawn) [malic acid]
[2]
  Effectiveness in vitro against enveloped viruses: effective

## CO [methanol]
[1]
  Upper pH limit at which HSV-1 is inactivated by the alcohol: 4.6

## CCCCO [n-butanol]
[1]
  Upper pH limit at which HSV-1 is inactivated by the alcohol: 4.6

## CCCO [propanol, reference compound]
[3]
  Activity against naked viruses: did not exhibit sufficient activities

## CC(=O)C(=O)O [pyruvic acid]
[2]
  Effectiveness in vitro against enveloped viruses: effective

## O=C(O)CCC(=O)O [succinic acid]
[2]
  Effectiveness in vitro against enveloped viruses: effective

## butanol [reference compound]
[4]
  Virucidal activity against VSV: fairly inactive
